Laboratory results published in ChEMBL document CHEMBL1141624, “Discovery of small molecule benzimidazole antagonists of the chemokine receptor CXCR3” (Bioorg Med Chem Lett, 2008).
pIC50: −log10 of the molar value. In brackets after ≈: the same amount, converted by molar mass.

Tests used:
[1] = biological target: T1, C-X-C chemokine receptor type 3 (Homo sapiens, UniProt P49682); assay: Displacement of [125]CXCL10 from human CXCR3 expressed in CHO cells; format: cell-based
T1 sequence (P49682 whole entry): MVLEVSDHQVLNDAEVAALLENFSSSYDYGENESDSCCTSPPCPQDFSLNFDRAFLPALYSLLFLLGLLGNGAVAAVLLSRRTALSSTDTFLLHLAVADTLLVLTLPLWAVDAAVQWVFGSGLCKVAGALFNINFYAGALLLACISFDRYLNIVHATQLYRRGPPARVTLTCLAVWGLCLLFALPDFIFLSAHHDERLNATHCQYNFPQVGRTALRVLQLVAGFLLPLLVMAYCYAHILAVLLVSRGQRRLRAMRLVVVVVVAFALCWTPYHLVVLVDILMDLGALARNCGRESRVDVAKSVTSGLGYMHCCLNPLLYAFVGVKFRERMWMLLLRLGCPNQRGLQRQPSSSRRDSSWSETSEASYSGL

[2] = Aqueous solubility of the compound; format: physicochemical; conditions: buffer
[3] = biological target: T1, C-X-C chemokine receptor type 3; assay: Antagonist activity at human CXCR3 expressed in CHO cells by FLIPR-based calcium mobilization assay; format: functional, cell-based
[4] = Protein binding in rat plasma; format: ADME, cell-free; conditions: read-out: PPB (converted)
[5] = Bioavailability in SJL mouse at 20 mg/kg, po; format: ADME, organism-based; conditions: in vivo
[6] = Clearance in SJL mouse at 10 mg/kg, po and 5 mg/kg, iv; format: ADME, organism-based; conditions: in vivo
[7] = Half life in SJL mouse at 20 mg/kg, po; format: ADME, organism-based; parameters: dose 20 mg/kg, route oral; conditions: in vivo
Liver microsomes = assay: Stability in rat liver microsome; format: ADME

Row | Structure (SMILES) | pIC50 [1] | further results
1 | COc1cccc2c1nc(C(C)=O)n2CC(=O)c1ccc(Br)cc1 | 5.52 | –
2 | Cn1c(=N)n(C[S+]([O-])c2ccc(Cl)cc2)c2ccccc21 (stereo not given) | 5.52 | –
3 | Cn1c(=N)n(CC(=O)c2ccc(Cl)cc2)c2cccc(Cl)c21 | 6.52 | –
4 | COc1cccc2c1n(C)c(=N)n2CC(=O)c1ccc(Br)cc1 | 6.10 | –
5 | Cn1c(=N)n(CC(=O)c2ccc(Cl)cc2)c2cccc(C(F)(F)F)c21 | 6.15 | –
6 | CC(=O)c1nc2ccccc2n1CC(=O)c1ccccc1 | < 4.00 | –
7 | C/N=c1/n(C)c2ccccc2n1CC(=O)c1ccc(Cl)cc1 | 6.10 | –
8 | CC(=O)c1nc2ccccc2n1CC(=O)c1ccc(C#N)cc1 | < 4.00 | –
9 | COc1ccc2c(c1)nc(C(C)=O)n2CC(=O)c1ccc(Br)cc1 | < 4.30 | –
10 | Cn1c(=N)n(CC(=O)c2ccc(Cl)c(Cl)c2)c2ccccc21 | 5.40 | –
11 | CC(=O)c1nc2cc(-c3ccccc3)ccc2n1CC(=O)c1ccc(Br)cc1 | < 4.30 | –
12 | CC(=O)c1nc2ccccc2n1CC(=O)c1ccc([N+](=O)[O-])cc1 | 5.52 | solubility [2]: 4.5 µM (≈ 1.45 µg/mL)
13 | CCc1cccc2c1n(C)c(=N)n2CC(=O)c1ccc(Cl)cc1 | 7.52 | pIC50 [3]: 7.15
14 | CC(=O)c1nc2ccccc2n1CC(=O)c1ccc(Br)cc1 | 5.70 | –
15 | COc1ccc2nc(C(C)=O)n(CC(=O)c3ccc(Br)cc3)c2c1 | < 4.30 | –
16 | COCC/N=c1/n(C)c2ccccc2n1CC(=O)c1ccc(Br)cc1 | 6.00 | –
17 | CC(=O)c1nc2ccc(-c3ccccc3)cc2n1CC(=O)c1ccc(Br)cc1 | < 4.30 | –
18 | CC(O)c1nc2ccccc2n1CC(=O)c1ccc([N+](=O)[O-])cc1 (stereo not given) | 4.70 | –
19 | Cn1c(=N)n(CC(=O)c2ccc(Br)cc2)c2ccccc21 | 6.10 | –
20 | Cc1ccc2c(c1)n(CC(=O)c1ccc(Cl)cc1)c(=N)n2C | 5.10 | –
21 | Cc1ccc2c(c1)n(C)c(=N)n2CC(=O)c1ccc(Cl)cc1 | 6.00 | pIC50 [3]: 5.30
22 | CCCc1cccc2c1n(C)c(=N)n2CC(=O)c1ccc(Cl)cc1 | 6.30 | pIC50 [3]: 6.40

Continued, in another order:

Row | pIC50 [1] | Structure (SMILES) | further results
23 | 5.10 | CC(=O)c1nc2ccccc2n1CC(=O)c1ccc(Cl)cc1 | –
24 | 4.30 | CC(=O)/N=c1/n(C)c2ccccc2n1CC(=O)c1ccc([N+](=O)[O-])cc1 | –
25 | 4.96 | C[S+]([O-])c1nc2ccccc2n1CC(=O)c1ccc([N+](=O)[O-])cc1 (stereo not given) | –
26 | 4.80 | Cn1c(=N)n(CC(=O)c2cccc(Cl)c2)c2ccccc21 | –
27 | 4.40 | Cn1c(=N)n(CC(O)c2ccc(Br)cc2)c2ccccc21 (stereo not given) | –
28 | 4.96 | Cn1c(=N)n(CCc2ccc(Br)cc2)c2ccccc21 | –
29 | 5.22 | Cn1c(=N)n(CCCC(=O)c2ccc(Br)cc2)c2ccccc21 | –
30 | 4.66 | Cn1c(=N)n(CC(=O)c2ccccc2Cl)c2ccccc21 | –
31 | 6.10 | Cn1c(=N)n(CC(=O)c2ccc(Cl)cc2)c2ccccc21 | pIC50 [3]: 5.05; solubility [2]: 84 µM (≈ 25.2 µg/mL)
32 | 7.00 | Cc1cccc2c1n(C)c(=N)n2CC(=O)c1ccc(Cl)cc1 | pIC50 [3]: 7.10; fraction unbound [4]: 0.15; bioavailability [5]: 57%; solubility [2]: 79 µM (≈ 24.8 µg/mL); clearance [6]: 95 mL/min/kg; half-life [7]: 4.9 h; Stability (Liver microsomes): 49%
